Structures can show the parent of a compound that is named as a salt.
Tested on: HCT116
Details: 72 h
In short: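 After seeding at 250 cells per well in 1536-well plates, HCT116 cells were given 5 h to attach. CellTiter-Glo luminescence, scaled to 0% for vehicle and -100% for positive control, was pattern-corrected. Fitting with a four-parameter Hill model produced IC50 and maximal efficacy.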

Row | Compound | IC50 cell viability (ICRF193 0 nM) [µM] | IC50 cell viability (ICRF193 200 nM) [µM]
1 | Cc1cccc(C)c1OCC(C)N (stereo not given) [Mexiletene hydrochloride] | > 45.8 | > 45.8
2 | CC1(C)S[C@@H]2[C@H](NC(=O)[C@H](NC(=O)N3CCN(S(C)(=O)=O)C3=O)c3ccccc3)C(=O)N2[C@H]1C(=O)O [Mezlocillin Sodium] | > 45.8 | > 45.8
3 | C[C@@H]1CC2=CC(=O)CC[C@@H]2[C@H]2CC[C@@]3(C)[C@@H](CC[C@]3(C)O)[C@@H]21 [Mibolerone] | > 45.8 | > 45.8
4 | CCCCCOc1ccc(-c2cc(-c3ccc(C(=O)N[C@H]4C[C@@H](O)[C@@H](O)NC(=O)[C@@H]5[C@@H](O)[C@@H](C)CN5C(=O)[C@H]([C@H](O)CC(N)=O)NC(=O)[C@H]([C@H](O)[C@@H](O)c5ccc(O)c(OS(=O)(=O)O)c5)NC(=O)[C@@H]5C[C@@H](O)CN5C(=O)[C@H]([C@@H](C)O)NC4=O)cc3)no2)cc1 [Micafunginsodium] | > 45.8 | > 45.8
5 | CNC[C@@H]1CC[C@@H](N)[C@@H](O[C@H]2[C@H](O)[C@@H](O[C@H]3OC[C@](C)(O)[C@H](NC)[C@H]3O)[C@H](N)C[C@@H]2N)O1 [Micronomicin sulfate] | > 45.8 | > 45.8
6 | CCC(=O)O[C@@H]1CC(=O)O[C@H](C)C/C=C/C=C/[C@H](OC(C)=O)[C@H](C)C[C@H](CC=O)[C@H](O[C@@H]2O[C@H](C)[C@@H](O[C@H]3C[C@@](C)(OC(C)=O)[C@@H](OC(=O)CC)[C@H](C)O3)[C@H](N(C)C)[C@H]2O)[C@H]1OC [Midecamycin Acetate] | > 45.8 | > 45.8
7 | CCC(=O)O[C@@H]1CC(=O)O[C@H](C)C/C=C/C=C/[C@H](O)[C@H](C)C[C@H](CC=O)[C@H](O[C@@H]2O[C@H](C)[C@@H](O[C@H]3C[C@@](C)(O)[C@@H](OC(=O)CC)[C@H](C)O3)[C@H](N(C)C)[C@H]2O)[C@H]1OC [Midecamycin] | > 45.8 | > 45.8
8 | COc1ccc(OC)c(C(O)CNC(=O)CN)c1 (stereo not given) [Midodrine hydrochloride] | > 45.8 | > 45.8
9 | CC#C[C@]1(O)CC[C@H]2[C@@H]3CCC4=CC(=O)CCC4=C3[C@@H](c3ccc(N(C)C)cc3)C[C@@]21C [Mifepristone] | > 45.8 | > 45.8
10 | OCCN1C[C@H](O)[C@@H](O)[C@H](O)[C@H]1CO [Miglitol] | > 45.8 | > 45.8
11 | CCCCN1C[C@H](O)[C@@H](O)[C@H](O)[C@H]1CO [Miglustat] | > 45.8 | > 45.8
12 | CCN(CC)C(=O)C1(c2ccccc2)CC1CN (stereo not given) [Milnacipran hydrochloride] | > 45.8 | > 45.8
13 | Cc1[nH]c(=O)c(C#N)cc1-c1ccncc1 [Milrinone] | > 45.8 | > 45.8
14 | CCCCCCCCCCCCCCCCOP(=O)([O-])OCC[N+](C)(C)C [Miltefosine] | > 45.8 | > 45.8
15 | CN(C)c1ccc(O)c2c1C[C@H]1C[C@H]3[C@H](N(C)C)C(O)=C(C(N)=O)C(=O)[C@@]3(O)C(O)=C1C2=O [Minocycline hydrochloride] | > 45.8 | > 45.8
16 | O=P(O)(O)C(O)(Cc1cnc2ccccn12)P(=O)(O)O [Minodronic acid] | > 45.8 | > 45.8
17 | Nc1cc(N2CCCCC2)nc(N)[n+]1[O-] [Minoxidil] | > 45.8 | > 45.8
18 | Nc1nc(CC(=O)Nc2ccc(CCNC[C@H](O)c3ccccc3)cc2)cs1 [Mirabegron] | > 45.8 | > 45.8
19 | CN1CCN2c3ncccc3Cc3ccccc3C2C1 (stereo not given) [Mirtazapine] | > 45.8 | > 45.8
20 | CO[C@@]12[C@H](COC(N)=O)C3=C(C(=O)C(C)=C(N)C3=O)N1C[C@@H]1N[C@@H]12 [Mitomycin C] | > 45.8 | > 45.8
21 | Clc1ccc(C(c2ccccc2Cl)C(Cl)Cl)cc1 (stereo not given) [Mitotane] | > 45.8 | > 45.8
22 | CN(c1nccc(=O)[nH]1)C1CCN(c2nc3ccccc3n2Cc2ccc(F)cc2)CC1 [Mizolastine] | > 45.8 | > 45.8
23 | NC(=O)c1ncn([C@@H]2O[C@H](CO)[C@@H](O)[C@H]2O)c1O [Mizoribine] | > 45.8 | > 45.8
24 | O=C(NCCN1CCOCC1)c1ccc(Cl)cc1 [Moclobemide] | > 45.8 | > 45.8
25 | CCOC(=O)[C@H](CCc1ccccc1)N[C@@H](C)C(=O)N1Cc2cc(OC)c(OC)cc2C[C@H]1C(=O)O [Moexipril hydrochloride] | > 45.8 | > 45.8
26 | COc1ccc(-c2noc(CC(=O)O)c2-c2ccc(OC)cc2)cc1 [Mofezolac] | > 45.8 | > 45.8
27 | CCc1c(C)[nH]c2c1C(=O)C(CN1CCOCC1)CC2 (stereo not given) [Molindone hydrochloride] | > 45.8 | > 45.8
28 | CCOC(=O)[N-]c1c[n+](N2CCOCC2)no1 [Molsidomine] | > 45.8 | > 45.8
29 | Oc1ccc(OCc2ccccc2)cc1 [Monobenzone] | > 45.8 | > 45.8
30 | CC(C)(O)c1ccccc1CC[C@@H](SCC1(CC(=O)O)CC1)c1cccc(/C=C/c2ccc3ccc(Cl)cc3n2)c1 [Montelukast sodium] | > 45.8 | > 45.8

From the supplement of paper PMC12137928
